Measurements taken from patent publication US9388147B2 (Receptos, Inc., priority 2009, dated 2016).

These compounds were tested against S1P1/EDG1 (Homo sapiens, UniProt P21453) (assay: S1P1 CRE-bla CHOK1 reporter assay, inhibition of Forskolin induced cAMP). Settings: agonist activity range, S1P1 CRE-bla CHOK1, 2 μM Forskolin; read-out: S1P1 ACTIVITY.
S1P1/EDG1, sequence (P21453 whole entry): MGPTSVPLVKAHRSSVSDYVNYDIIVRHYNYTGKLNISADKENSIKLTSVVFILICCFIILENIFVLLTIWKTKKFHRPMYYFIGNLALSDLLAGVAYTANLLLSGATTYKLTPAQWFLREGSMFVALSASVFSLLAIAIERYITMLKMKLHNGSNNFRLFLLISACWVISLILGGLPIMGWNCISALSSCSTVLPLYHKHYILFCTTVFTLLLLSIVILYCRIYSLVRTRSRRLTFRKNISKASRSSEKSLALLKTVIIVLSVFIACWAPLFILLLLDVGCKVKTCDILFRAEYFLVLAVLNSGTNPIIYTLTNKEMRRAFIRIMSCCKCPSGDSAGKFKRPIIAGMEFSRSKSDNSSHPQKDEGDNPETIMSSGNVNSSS
Type: cell-based
In short: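 Read-out is a FRET β-lactamase substrate (2 h, room temperature) after 4 h, 37 °C compound treatment under 2 μM Forskolin in stable S1P1-transfected CRE-bla CHO-K1 cells. Ten-point curves; non-linear regression gives EC50 for inhibition of Forskolin-stimulated cAMP.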
`CCCN[C@H]1CCc2c(-c3noc(-c4ccc(OC(C)C)c(C#N)c4)n3)cccc21` [Compound 144] was tested, and the EC50 was 0.05 to 0.5 nM. For `CC(C)Oc1ccc(-c2nc(-c3cccc4c3CC[C@H]4NC(=O)N3CCNCC3)no2)cc1C#N` [Compound 213], the EC50 was 0.5 to 5 nM. Compound `CC(C)Oc1ccc(-c2nc(-c3cccc4c3CC[C@H]4NS(=O)(=O)Cc3ccccc3)no2)cc1C#N` [Compound 81] has an EC50 of 0.5 to 5 nM. Compound `CC(C)Oc1ccc(-c2nc(-c3cccc4c3CC[C@@H]4NCC(F)F)no2)cc1C#N` [Compound 141] has an EC50 of 0.05 to 0.5 nM. Compound `CC(C)Oc1ccc(-c2nc(-c3cccc4c3CC[C@@H]4O)no2)cc1C(F)(F)F` [Compound 8] has an EC50 of 0.05 to 0.5 nM. With `CC(C)Oc1ccc(-c2nc(-c3cccc4c3CC[C@H]4NCCF)no2)cc1C#N` [Compound 124, (R)-5-(3-(1-((2-fluoroethyl)amino)-2,3-dihydro-1H-inden-4-yl)-1,2,4-oxadiazol-5-yl)-2-isopropoxybenzonitrile] the EC50 was 0.05 to 0.5 nM. Work on `CC(=O)Nc1ccc(S(=O)(=O)NC2CCc3c(-c4noc(-c5ccc(OC(C)C)c(C#N)c5)n4)cccc32)cc1` (stereo in doubt) [Compound 82] yielded an EC50 of over 5 nM. With `CC(C)Oc1ccc(-c2nc(-c3cccc4c3CCC4NS(=O)(=O)c3ccccc3)no2)cc1C#N` (stereo in doubt) [Compound 79] the EC50 was 0.5 to 5 nM. `CNC(=O)C1CN([C@H]2CCc3c(-c4noc(-c5ccc(OC(C)C)c(C#N)c5)n4)cccc32)C1` [Compound 206] was tested, and the EC50 was 0.05 to 0.5 nM. In the case of `CC(C)Oc1ccc(-c2nc(-c3cccc4c3CC[C@H]4N3CC(O)C3)no2)cc1C#N` [Compound 83, (R)-5-(3-(1-(3-hydroxyazetidin-1-yl)-2,3-dihydro-1H-inden-4-yl)-1,2,4-oxadiazol-5-yl)-2-isopropoxybenzonitrile], the EC50 is reported as 0.05 to 0.5 nM. Work on `CC(C)Oc1ccc(-c2nc(-c3cccc4c3CC[C@H]4N3CC(C(=O)N(C)C)C3)no2)cc1C#N` [Compound 204] yielded an EC50 of 0.05 to 0.5 nM. For `CNC(=O)CS(=O)(=O)N[C@H]1CCc2c(-c3noc(-c4ccc(OC(C)C)c(C#N)c4)n3)cccc21` [Compound 198], the EC50 was 0.05 to 0.5 nM. For `CC(C)Oc1ccc(-c2nc(-c3cccc4c3CC[C@H]4N)no2)cc1` [Compound 96, (R)-4-(5-(4-isopropoxyphenyl)-1,2,4-oxadiazol-3-yl)-2,3-dihydro-1H-inden-1-amine], the EC50 was over 5 nM. `CC(C)Oc1ccc(-c2nc(-c3cccc4c3CC[C@H]4NC(=O)N3CCOCC3)no2)cc1C#N` [Compound 211] showed an EC50 of 0.05 to 0.5 nM. For `CC(C)Oc1ccc(-c2nc(-c3cccc4c3CC[C@H]4NC(=O)N3CC[C@@H](N)C3)no2)cc1C#N` [Compound 221], the EC50 was 0.05 to 0.5 nM. In the case of `CC(C)Oc1ccc(-c2nc(-c3cccc4c3CC[C@@H]4NC[C@@H](O)[C@H](O)[C@H](O)CO)no2)cc1C#N` [Compound 119, 2-isopropoxy-5-(3-((S)-1-(((2R,3S,4R)-2,3,4,5-tetrahydroxypentyl)amino)-2,3-dihydro-1H-inden-4-yl)-1,2,4-oxadiazol-5-yl)benzonitrile], the EC50 is reported as 0.5 to 5 nM. Compound `CC(C)Oc1ccc(-c2nc(-c3cccc4c3CC[C@H]4NS(=O)(=O)CC(=O)N3CCC3)no2)cc1C#N` [Compound 201] has an EC50 of under 0.05 nM. With `CC(C)Oc1ccc(-c2nc(-c3cccc4c3CC[C@H]4N)no2)cc1Cl` [Compound 95, (R)-4-(5-(3-chloro-4-isopropoxyphenyl)-1,2,4-oxadiazol-3-yl)-2,3-dihydro-1H-inden-1-amine] the EC50 was over 5 nM. For `CCOc1ccc(-c2nc(-c3cccc4c3CC[C@H]4O)no2)cc1C(F)(F)F` [Compound 9], the EC50 was 0.5 to 5 nM. Work on `CC(C)Oc1ccc(-c2nc(-c3cccc4c3CC[C@H]4NC(=O)N3CCC[C@@H](O)C3)no2)cc1C#N` [Compound 219] yielded an EC50 of 0.5 to 5 nM. `CC(C)Oc1ccc(-c2nc(-c3cccc4c3CC[C@@H]4NC(=O)N3CC[C@@H](N(C)C)C3)no2)cc1C#N` [Compound 244] was tested, and the EC50 was 0.5 to 5 nM. For `CC(C)Oc1ccc(-c2nc(-c3cccc4c3CCC4NC(C)(C)CO)no2)cc1C#N` (racemic) [Compound 15], the EC50 was 0.5 to 5 nM.
